Here are results for 20 compounds from ChEMBL document CHEMBL5346877, “A-ring-fused pyrazoles of dihydrotestosterone targeting prostate cancer cells via the downregulation of the androgen receptor” (Eur J Med Chem, 2023).

One test concerns DU-145. As to the kind of experiment: Cytotoxicity against human DU-145 cells assessed as cell viability at 20 uM incubated for 72 hrs by resazurin dye based microplate reader assay. It is filed as functional. The settings on record: read-out: Activity. Background: The colour change of resazurin is a common sign of viable cells or microbes.
The subject of test [1] is LAPC4. The test can be described thus: Cytotoxicity against human LAPC4 cells assessed as cell viability at 20 uM incubated for 72 hrs by resazurin dye based microplate reader assay. It is filed as functional. The settings on record: read-out: Activity.
Another test concerns CWR22R. The test can be described thus: Cytotoxicity against human 22Rv1 cells assessed as cell viability at 20 uM incubated for 72 hrs by resazurin dye based microplate reader assay. The test is classed as functional. The settings on record: read-out: Activity.
Test [2] has as its system LAPC4. As to the kind of experiment: Inhibition of colony formation in human LAPC4 cells at 10 uM incubated for 10 days by crystal violet staining based assay. It is filed as functional. As to conditions: LAPC4, 240 h, time 10 day.
Test [3] has as its system LAPC4. The test can be described thus: Inhibition of colony formation in human LAPC4 cells at 5 uM incubated for 10 days by crystal violet staining based assay. It is filed as functional, cell-based. As to conditions: time 10.0 day.
Test [4] in a line: Downregulation of AR protein expression in human LAPC4 cells assessed as AR levels at 10 uM incubated for 24 hrs by immunoblotting analysis. The test is classed as functional.

Calls of active or inactive are those of the source. No cut-off for these calls is given here.

What is called inhibition is the drop in the measured response relative to a control, in per cent. As for `Cc1c2c(nn1-c1ccc(F)cc1)C[C@@H]1CC[C@@H]3[C@H](CC[C@]4(C)C(=O)CC[C@@H]34)[C@@]1(C)C2`, the viability at 20 µM in the test on DU-145 was at least 100%; in the test with LAPC4 [1] it was 42%; with CWR22R, 75%. This compound had an inhibition at 10 µM with LAPC4 [2] of 15%. In the test on LAPC4 [3], the inhibition entry is “Active”.
With `Cc1c2c(nn1-c1ccc(C#N)cc1)C[C@@H]1CC[C@@H]3[C@H](CC[C@]4(C)[C@@H](O)CC[C@@H]34)[C@@]1(C)C2`, the viability at 20 µM with DU-145 is 50%; with LAPC4 [1], 73%; with CWR22R, 43%. This compound had an inhibition at 10 µM in the test with LAPC4 [2] of 6%. Moreover, the inhibition entry in the test with LAPC4 [3] was “Active”.
With `Cc1c2c(nn1-c1ccc(Br)cc1)C[C@@H]1CC[C@@H]3[C@H](CC[C@]4(C)C(=O)CC[C@@H]34)[C@@]1(C)C2`, in the test with LAPC4 [3], the inhibition result is “Active”.
`C[C@]12Cc3cnn(-c4ccc(C#N)cc4)c3C[C@@H]1CC[C@@H]1[C@@H]2CC[C@]2(C)[C@@H](O)CC[C@@H]12`: the values for the viability at 20 µM in the test on DU-145, with LAPC4 [1] and in the test with CWR22R were 88%, 65% and 65%, respectively. Moreover, the Activity entry in test [4] is listed as “>=100%”. The compound further gave an inhibition at 10 µM in the test with LAPC4 [2] of 12%.
Take `C[C@]12Cc3cnn(-c4ccc(Br)cc4)c3C[C@@H]1CC[C@@H]1[C@@H]2CC[C@]2(C)[C@@H](O)CC[C@@H]12`: the viability at 20 µM came to 100% in the test with DU-145, 58% in the test with LAPC4 [1] and 62% with CWR22R. The Activity entry in test [4] is reported as “>=100%”. The compound further came in with an inhibition at 10 µM in the test with LAPC4 [2] of 1%.
Regarding `C[C@]12Cc3cnn(-c4ccc([N+](=O)[O-])cc4)c3C[C@@H]1CC[C@@H]1[C@@H]2CC[C@]2(C)[C@@H](O)CC[C@@H]12`, the viability at 20 µM in the test with DU-145 came to 99%; in the test with LAPC4 [1], 40%; in the test with CWR22R, 97%. Besides, the Activity result in test [4] is reported as “>=100%”. The compound further returned an inhibition at 10 µM in the test with LAPC4 [2] of 15%.
Take `Cc1c2c(nn1-c1ccccc1)C[C@@H]1CC[C@@H]3[C@H](CC[C@]4(C)C(=O)CC[C@@H]34)[C@@]1(C)C2`: the viability at 20 µM in the test on DU-145 was 100%; in the test on LAPC4 [1], 87%; with CWR22R, 90%. In the test on LAPC4 [2], this compound came in with an inhibition at 10 µM of 54%. The inhibition result in the test on LAPC4 [3] is “Active”.
On to `Cc1ccc(-n2nc3c(c2C)C[C@@]2(C)[C@@H](CC[C@@H]4[C@@H]2CC[C@]2(C)[C@@H](O)CC[C@@H]42)C3)cc1`, for which the viability at 20 µM is 93% in the test with DU-145, 88% with LAPC4 [1] and 37% with CWR22R. In addition, the inhibition at 10 µM in the test with LAPC4 [2] amounted to 2%. Further, the inhibition entry with LAPC4 [3] was “Active”.
For `Cc1c2c(nn1-c1ccc(Cl)cc1)C[C@@H]1CC[C@@H]3[C@H](CC[C@]4(C)C(=O)CC[C@@H]34)[C@@]1(C)C2`, in that order: at least 100%, 38%, 75%, 16% and “Active”.
Take `N#Cc1ccc(O[C@H]2CC[C@H](NC(=O)c3ccc(N4CCC(CN5CCN(c6cc7c(cc6F)C(=O)N(C6CCC(=O)NC6=O)C7=O)CC5)CC4)nn3)CC2)cc1Cl` (stereo partly specified) [BAVDEGALUTAMIDE]: the viability at 20 µM in the test with DU-145 was 85%; in the test with LAPC4 [1], 5%; in the test on CWR22R, 96%. Also, the Activity in test [4] turned out to be 14%. This compound also returned an inhibition at 10 µM in the test on LAPC4 [2] of 7%.
Consider `Cc1c2c(nn1-c1ccc([N+](=O)[O-])cc1)C[C@@H]1CC[C@@H]3[C@H](CC[C@]4(C)[C@@H](O)CC[C@@H]34)[C@@]1(C)C2`, for which the viability at 20 µM in the test on DU-145 stood at 85%; with LAPC4 [1], 74%; in the test with CWR22R, 58%. Further, the inhibition at 10 µM in the test with LAPC4 [2] was found to be 11%. Moreover, the inhibition result with LAPC4 [3] was “Active”.
As to `Cc1c2c(nn1-c1ccc(Cl)cc1)C[C@@H]1CC[C@@H]3[C@H](CC[C@]4(C)[C@@H](O)CC[C@@H]34)[C@@]1(C)C2`, the viability at 20 µM was 107% in the test with DU-145, 47% in the test with LAPC4 [1] and 52% in the test with CWR22R. The inhibition at 10 µM in the test with LAPC4 [2] was 4%. Besides, the inhibition result in the test on LAPC4 [3] is “Active”.
Consider `C[C@]12CC[C@H](O)CC1=CC[C@@H]1[C@@H]2CC[C@]2(C)C(n3cnc4ccccc43)=CC[C@@H]12` [GALETERONE], for which the results for the viability at 20 µM with DU-145, with LAPC4 [1] and with CWR22R were at least 100%, at least 76% and 95%, respectively. Besides, the Activity in test [4] worked out at 81%. The same compound showed an inhibition at 10 µM in the test on LAPC4 [2] of 30%.
Turning to `COc1ccc(-n2nc3c(c2C)C[C@@]2(C)[C@@H](CC[C@@H]4[C@@H]2CC[C@]2(C)C(=O)CC[C@@H]42)C3)cc1`, the viability at 20 µM is at least 100% in the test with DU-145, 57% in the test with LAPC4 [1] and 77% in the test on CWR22R. In the test with LAPC4 [2], this compound came in with an inhibition at 10 µM of 20%. In addition, the inhibition result in the test on LAPC4 [3] was “Active”.
Turning to `C[C@]12Cc3cnn(-c4ccc(F)cc4)c3C[C@@H]1CC[C@@H]1[C@@H]2CC[C@]2(C)[C@@H](O)CC[C@@H]12`, the figures for the viability at 20 µM in the test on DU-145, in the test on LAPC4 [1] and with CWR22R were 55%, 44% and 57%, respectively. Moreover, the Activity result in test [4] is “>=100%”. Besides, in the test on LAPC4 [2], the inhibition at 10 µM was 1%.
For `Cc1c2c(nn1-c1ccc([N+](=O)[O-])cc1)C[C@@H]1CC[C@@H]3[C@H](CC[C@]4(C)C(=O)CC[C@@H]34)[C@@]1(C)C2`, the viability at 20 µM in the test with DU-145 was at least 100%; in the test on LAPC4 [1], 48%; with CWR22R, 57%. In the test on LAPC4 [2], testing at 10 µM gave an inhibition of 26%. In addition, in the test with LAPC4 [3], the inhibition entry was “Active”.
On to `C[C@]12CC[C@H](O)CC1=CC[C@@H]1[C@@H]2CC[C@]2(C)C(c3cccnc3)=CC[C@@H]12` [ABIRATERONE], for which the values for the viability at 20 µM with DU-145, with LAPC4 [1] and in the test with CWR22R were at least 100%, 100% and at least 100%, respectively. Further, the Activity in test [4] was 88%. The inhibition at 10 µM in the test on LAPC4 [2] came to 70%.
On to `C[C@]12Cc3c(nn(-c4ccccc4)c3-c3ccccc3)C[C@@H]1CC[C@@H]1[C@@H]2CC[C@]2(C)[C@@H](O)CC[C@@H]12`, for which the results for the viability at 20 µM with DU-145, in the test with LAPC4 [1] and in the test with CWR22R were 12%, 72% and 47%, respectively. Also, in test [4], the Activity result is listed as “>=100%”. The inhibition at 10 µM with LAPC4 [2] is at least 100%.
On to `CNC(=O)c1ccc(N2C(=S)N(c3ccc(C#N)c(C(F)(F)F)c3)C(=O)C2(C)C)cc1F` [ENZALUTAMIDE], for which the viability at 20 µM is 96% with DU-145, 81% in the test with LAPC4 [1] and at least 100% in the test on CWR22R. Besides, the Activity in test [4] was found to be 85%. The inhibition at 10 µM with LAPC4 [2] stood at 44%.
Take `COc1ccc(-n2ncc3c2C[C@@H]2CC[C@@H]4[C@H](CC[C@]5(C)[C@@H](O)CC[C@@H]45)[C@@]2(C)C3)cc1`: the viability at 20 µM with DU-145 is 97%; with LAPC4 [1], 43%; in the test with CWR22R, 75%. Moreover, the Activity result in test [4] was “>=100%”. For the same compound, the inhibition at 10 µM in the test with LAPC4 [2] was determined as 0%.
